This is an account of results in patent US20230117947A1, “Seed Treatment Methods and Compositions” (Novozymes BIOAG A/S, priority 2011, published 2023).

Marks after values point to notes of the source that are not given here.

Common to all, as to assay type: in vivo
Experiment [1] relates to soybean seed (Stine 52118). Nature of the experiment: Field trial (Example 2): grain yield from treated soybean seed, Whitewater, Wis. To be noted: for GRAIN YIELD @ 13%: 4.8 fl oz/cwt, 13% seed moisture. How it is done: A soybean trial was conducted to evaluate embodiments of the present invention on grain yield when applied on soybean seed. The field trial site was located near Whitewater, Wis. and characterized by Milford silty clay loam soil. […] The plant signal molecules used in the trial were same as in Example 1. The soybean seed used in the study was Stine 52118. The plant signal molecules were sprayed onto seeds with/without dilution at a rate of 4.8 fl oz/cwt. The study was conducted in a randomized complete block design, with a plot size of 10 feet by 50 feet (0.011 acres), with 7.5-inch row spacing. Four replications were conducted. Seed were treated with the plant signal molecules 4.5 or 5 months prior to planting and just prior to planting, and were planted at a depth of 1 inch and at a seedling rate of 225,000 seeds per acre using a John Deere 750 NT grain drill. The pesticides Extreme® and AMPS® were both applied 10 days prior to planting (pre-emergence) at rates of 3.0 pt and 2.5 lb, respectively. Assure II®, Roundup WeatherMax® and AMPS® were all applied 45-days post-planting (post-emergent), at rates of 6.0 oz, 21 oz and 2.5 lb, respectively. Plants were harvested 4 months and 21 days after planting. The Control seed was treated with an amount (wt) of water, corresponding to the amount (wt) of the experimental signal molecule composition (signal molecule+carrier). The Control seed was stored under the same conditions as the experimental seed prior to planting and planted at the same time as the experimental seed in the same soil.

For a further experiment, the system named is Soybean seeds. Nature of the experiment: Greenhouse test (Example 3): root length and root volume of seedlings from stored treated seed (Winrhizo scanner). To be noted: for % increase in root length / % increase in root vol.: versus Control; for Root Vol. / Root length: 10^−7M, stored at 15° C., harvested after 10 days. Here is the method: Soybean seeds treated with 10^−7M pure LCO-V (C18:1, MeFuc) and stored at 15° C. Treated seeds and non-treated seeds (control) were planted 1 and 12 months after treatment in greenhouse pots containing sand:perlite (1:1 mixture). Seedlings were grown for 10 days after seed plantings then seedlings were harvested, their roots cleaned and measured on the Winrhizo® scanner. The Control seed was treated with an amount (wt) of water, corresponding to the amount (wt) of the experimental signal molecule composition (signal molecule+carrier). The Control seed was stored under the same conditions as the experimental seed prior to planting and planted at the same time as the experimental seed in the same soil.

The subject of experiment [2] is soybean seed (Stine S2118). Nature of the experiment: Field trial (Example 1): grain yield from treated soybean seed, Whitewater, Wis. To be noted: for GRAIN YIELD @ 13%: 4.8 fl oz/cwt, 13% seed moisture. Here is the method:
A field trial was conducted to evaluate embodiments of the present invention on grain yield when applied on soybean seed. The field trial site was located near Whitewater, Wis. and characterized by Milford silty clay loam soil.
The plant signal molecules used in the trial were Optimize®, a non-commercial grade of Optimize® (NI-50S-1), pure LCO-V (C18:1, MeFuc)(NI-50GREN-1) and a non-commercial grade of LCO-V (C18:1, MeFuc)(NI-50S-2CF). The soybean seed used in the study was Stine S2118. The plant signal molecules were sprayed onto seeds with/without dilution at a rate of 4.8 fl oz/cwt.
The study was conducted in a randomized complete block design, with a plot size of 10 feet by 50 feet (0.011 acres), with 7.5-inch row spacing. Four replications were conducted. Seed were treated with the plant signal molecules 4.5 or 5 months prior to planting and just prior to planting, and were planted at a depth of 1 inch and at a seedling rate of 225,000 seeds per acre using a John Deere 750 NT grain drill. The pesticides Extreme® and AMPS® were both applied 11 days prior to planting (pre-emergence) at rates of 3.0 pt and 2.5 lb, respectively. Assure II®, Roundup WeatherMax® and AMPS® were all applied 46-days post-planting (post-emergent), at rates of 6.0 oz, 21 oz and 2.5 lb, respectively. Plants were harvested 4 months and 20 days after planting.
The Control seed was treated with an amount (wt) of water, corresponding to the amount (wt) of the experimental signal molecule composition (signal molecule+carrier). The Control seed was stored under the same conditions as the experimental seed prior to planting and planted at the same time as the experimental seed in the same soil.

[3] abbreviates: 5 months pre-planting (Group 5) versus at planting (Group 4).
The mark [4] stands for this setting: seed treated 5 months prior to planting.
[5] abbreviates: planted 1 month after treatment.

On to LCO-V (C18:1, MeFuc) [NI-50GREN-1], for which the “decrease in soybean yield” value in experiment [1] (setting [3]) is reported as 1.8 bushels/acre. For the same substance, the “GRAIN YIELD @ 13%” value in experiment [1] (setting [4]) is on record as 64.0 bushels/acre; in experiment [1] (seed treated at planting) it was 65.8 bushels/acre; in experiment [2] (setting [4]), 70.5 bushels/acre; in experiment [2] (seed treated at planting), 62.2 bushels/acre. Moreover, the entries for the “% increase in root length” value in the experiment with Soybean seeds (1 month after treatment) and in the experiment on Soybean seeds (1 yr after treatment) were 5.46% and 37.92%, respectively. Also, the “% increase in root vol.” value in the experiment on Soybean seeds (1 month after treatment) is recorded as 2.86%; in the experiment with Soybean seeds (1 yr after treatment), 34%. In addition, the “Root Vol.” value in the experiment on Soybean seeds (setting [5]) is recorded as 0.468 cm^3; in the experiment with Soybean seeds (planted 1 yr after treatment) it was 0.540* cm^3. Besides, the values for the Root length with Soybean seeds (setting [5]) and in the experiment with Soybean seeds (planted 1 yr after treatment) were 135* cm and 159.3* cm, respectively. Also, the “increase in soybean yield” value in experiment [2] (setting [3]) is listed as 8.3 bushels/acre.
